{
  "source": "patent US9695155B2",
  "about": "“Herbicidal substituted pyrimidinyloxy benzene compounds” (E. I. DU PONT DE NEMOURS AND COMPANY, priority 2013, dated 2017)",
  "key": {"lambsquarters": {"system": "lambsquarters", "assay": "Test C postemergence", "format": "in vivo, Chenopodium album", "in_short": "(§1)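 Injury was assessed visually against controls 13 to 15 days after application, with 0 meaning no effect and 100 full control; missing entries are shown as a dash. Preemergence sprays hit seeded loam–sand soil, postemergence sprays hit 1- to 4-leaf plants.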"}, "soybean": {"system": "soybean", "assay": "Test C postemergence", "format": "in vivo, Glycine max", "in_short": "as §1"}, "Heteranthera limosa": {"system": "Heteranthera limosa", "assay": "Test B flooded paddy test", "format": "in vivo", "conditions": "Flood, 250 g ai/ha; 0 to 100 scale where 0 is no effect and 100 is complete control", "in_short": "(§2)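 Scores from 0 (no effect) to 100 (complete control) are visual comparisons with controls, taken 13 to 15 days after compound was applied into floodwater 3 cm deep around 2-leaf plants.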"}, "Italian ryegrass": {"system": "Italian ryegrass", "assay": "Test C postemergence", "format": "in vivo, Lolium multiflorum", "description": "(§3) Seeds of plant species selected from blackgrass (Alopecurus myosuroides), Italian ryegrass (Lolium multiflorum), wheat, winter (winter wheat, Triticum aestivum), galium (catchweed bedstraw, Galium aparine), corn (Zea mays), large (Lg) crabgrass (Digitaria sanguinalis), giant foxtail (Setaria faberii), johnsongrass (Sorghum halepense), lambsquarters (Chenopodium album), morningglory (Ipomoea coccinea), yellow nutsedge (Cyperus esculentus), pigweed (Amaranthus retroflexus), ragweed (common ragweed, Ambrosia elatior), soybean (Glycine max), barnyardgrass (Echinochloa crus-galli), oilseed rape (Brassica napus), waterhemp (common waterhemp, Amaranthus rudis), kochia (Kochia scoparia), wild oat (Avena fatua), surinam grass (Brachiaria decumbens), foxtail, green (green foxtail, Setaria viridis), goosegrass (Eleusine indica), bromegrass, downy (downy bromegrass, Bromus tectorum), nightshade (eastern black nightshade, Solanum ptycanthum), cocklebur (common cocklebur, Xanthium strumarium), cupgrass, woolly (woolly cupgrass, Eriochloa villosa), bermudagrass (Cynodon dactylon), sunflower, (common oilseed sunflower, Helianthus annuus), Russian thistle (Salsola kali), and velvetleaf (Abutilon theophrasti) were planted into a blend of loam soil and sand and treated preemergence with test chemicals formulated in a non-phytotoxic solvent mixture which included a surfactant.\n(§4) At the same time, plants selected from these crop and weed species and also barley, winter (winter barley, Hordeum vulgare), windgrass (Apera spica-venti), chickweed (common chickweed, Stellaria media), deadnettle (henbit deadnettle, Lamium amplexicaule), and canarygrass (littleseed canarygrass, Phalaris minor) were planted in pots containing Redi-Earth® planting medium (Scotts Company, 14111 Scottslawn Road, Marysville, Ohio 43041) comprising spaghnum peat moss, vermiculite, wetting agent and starter nutrients and treated with postemergence applications of test chemicals formulated in the same manner. Plants ranged in height from 2 to 18 cm (1- to 4-leaf stage) for postemergence treatments. Treated plants and controls were maintained in a greenhouse for 13 to 15 days, after which time all species were compared to controls and visually evaluated. Plant response ratings, summarized in Table C, are based on a scale of 0 to 100 where 0 is no effect and 100 is complete control. A dash (-) response means no test result."}, "blackgrass": {"system": "blackgrass", "assay": "Test C postemergence", "format": "in vivo, Alopecurus myosuroides", "description": "as §3, §4"}, "pigweed": {"system": "pigweed", "assay": "Test C postemergence", "format": "in vivo, Amaranthus retroflexus", "in_short": "as §1"}, "rice": {"system": "rice", "assay": "Test B flooded paddy test", "format": "in vivo, Oryza sativa", "conditions": "Flood, 250 g ai/ha; 0 to 100 scale where 0 is no effect and 100 is complete control", "in_short": "as §2"}, "morningglory": {"system": "morningglory", "assay": "Test A postemergence", "format": "in vivo, Ipomoea spp.", "in_short": "(§5)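 Scoring: eye-based comparison with untreated controls, 0 for no effect through 100 for complete control, at about day 10. Treatments: directed soil spray preemergence; foliar spray postemergence on 2–10 cm plants at the one- to two-leaf stage. Medium: loam soil with sand.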"}, "barnyardgrass": {"system": "barnyardgrass", "assay": "Test C postemergence", "format": "in vivo, Echinochloa crus-galli", "description": "as §3, §4"}, "corn": {"system": "corn", "assay": "Test A preemergence", "format": "in vivo, Zea mays", "in_short": "as §5"}, "kochia": {"system": "kochia", "assay": "Test C postemergence", "format": "in vivo, Kochia scoparia", "description": "as §3, §4"}, "[1]": {"conditions": "Postemergence, 31 g ai/ha, scale 0 to 100 (0 no effect, 100 complete control), 13 to 15 days"}, "[2]": {"conditions": "Postemergence, 62 g ai/ha, scale 0 to 100 (0 no effect, 100 complete control)"}, "[3]": {"conditions": "125 g ai/ha, 0 to 100 scale where 0 is no effect and 100 is complete control"}, "[4]": {"conditions": "31 g ai/ha, postemergence, visual rating, scale 0 to 100 (0 no effect, 100 complete control), 13 to 15 days"}, "[5]": {"conditions": "125 g ai/ha, postemergence, visual rating, scale 0 to 100 (0 no effect, 100 complete control)"}, "[6]": {"conditions": "Postemergence, 62 g ai/ha, scale 0 to 100 (0 no effect, 100 complete control), 13 to 15 days"}},
  "data": [
    {"smiles": "N#Cc1cccc(Oc2ncc(F)cn2)c1-n1cc(Br)cn1", "note": "[Compound 62]", "values": [
      {"measurement": "Plant response rating (0 to 100), Lambsquarters", "setting": "lambsquarters; 125 g ai/ha, postemergence", "value": 85},
      {"measurement": "Plant response rating (0 to 100), Lambsquarters", "setting": "lambsquarters; 250 g ai/ha, postemergence", "value": 90},
      {"measurement": "Plant response rating, Lambsquarters", "setting": "lambsquarters; [1]", "value": 60},
      {"measurement": "Plant response rating, Lambsquarters", "setting": "lambsquarters; [2]", "value": 60},
      {"measurement": "Plant response rating (0 to 100), Soybean", "setting": "soybean; 125 g ai/ha, postemergence", "value": 95},
      {"measurement": "Plant response rating (0 to 100), Soybean", "setting": "soybean; 250 g ai/ha, postemergence", "value": 95},
      {"measurement": "Plant response rating, Soybean", "setting": "soybean; [1]", "value": 45},
      {"measurement": "Plant response rating, Soybean", "setting": "soybean; [2]", "value": 85},
      {"measurement": "Plant response rating, Ducksalad", "setting": "Heteranthera limosa", "value": 80},
      {"measurement": "Plant response rating (0 to 100), Ryegrass, Italian", "setting": "Italian ryegrass; 125 g ai/ha, postemergence", "value": 5},
      {"measurement": "Plant response rating (0 to 100), Ryegrass, Italian", "setting": "Italian ryegrass; 250 g ai/ha, postemergence", "value": 15},
      {"measurement": "Plant response rating, Ryegrass, Italian", "setting": "Italian ryegrass; [1]", "value": 0},
      {"measurement": "Plant response rating, Ryegrass, Italian", "setting": "Italian ryegrass; [2]", "value": 0},
      {"measurement": "Plant response rating (0 to 100), Blackgrass", "setting": "blackgrass; 125 g ai/ha, postemergence", "value": 30},
      {"measurement": "Plant response rating (0 to 100), Blackgrass", "setting": "blackgrass; 250 g ai/ha, postemergence", "value": 50},
      {"measurement": "Plant response rating, Blackgrass", "setting": "blackgrass; [1]", "value": 0},
      {"measurement": "Plant response rating, Blackgrass", "setting": "blackgrass; [2]", "value": 5},
      {"measurement": "Plant response rating (0 to 100), Pigweed", "setting": "pigweed; 125 g ai/ha, postemergence", "value": 75},
      {"measurement": "Plant response rating (0 to 100), Pigweed", "setting": "pigweed; 250 g ai/ha, postemergence", "value": 80},
      {"measurement": "Plant response rating, Pigweed", "setting": "pigweed; [1]", "value": 50},
      {"measurement": "Plant response rating, Pigweed", "setting": "pigweed; [2]", "value": 65},
      {"measurement": "Plant response rating, Rice", "setting": "rice", "value": 0},
      {"measurement": "Plant response rating, Morningglory", "setting": "morningglory; [3]", "value": 90},
      {"measurement": "Plant response rating, Morningglory", "setting": "morningglory; 500 g ai/ha, 0 to 100 scale, 0 no effect, 100 complete control", "value": 100},
      {"measurement": "Plant response rating (0 to 100), Barnyardgrass", "setting": "barnyardgrass; 125 g ai/ha, postemergence", "value": 5},
      {"measurement": "Plant response rating (0 to 100), Barnyardgrass", "setting": "barnyardgrass; 250 g ai/ha, postemergence", "value": 10},
      {"measurement": "Plant response rating, Barnyardgrass", "setting": "barnyardgrass; [1]", "value": 0},
      {"measurement": "Plant response rating, Barnyardgrass", "setting": "barnyardgrass; [2]", "value": 5},
      {"measurement": "Plant response rating, Corn", "setting": "corn; [3]", "value": 0},
      {"measurement": "Corn plant response rating", "setting": "corn; 500 g ai/ha, 0 to 100 scale, 0 no effect, 100 complete control, approx. 10 days", "value": 90},
      {"measurement": "Plant response rating (0 to 100), Kochia", "setting": "kochia; 125 g ai/ha, postemergence", "value": 90},
      {"measurement": "Plant response rating (0 to 100), Kochia", "setting": "kochia; 250 g ai/ha, postemergence", "value": 95},
      {"measurement": "Plant response rating, Kochia", "setting": "kochia; [1]", "value": 80},
      {"measurement": "Plant response rating, Kochia", "setting": "kochia; [2]", "value": 90}
    ]},
    {"smiles": "N#Cc1cccc(Oc2ncc(Cl)cn2)c1-n1cc(-n2ccc(C(F)(F)F)n2)cn1", "note": "[Compound 284]", "values": [
      {"measurement": "Lambsquarters plant response rating", "setting": "lambsquarters; [4]", "value": 70},
      {"measurement": "Plant response rating, Lambsquarters", "setting": "lambsquarters; [5]", "value": 98},
      {"measurement": "Plant response rating (0 to 100), Lambsquarters", "setting": "lambsquarters; 250 g ai/ha, postemergence", "value": 98},
      {"measurement": "Plant response rating, Lambsquarters", "setting": "lambsquarters; [6]", "value": 85},
      {"measurement": "Soybean plant response rating", "setting": "soybean; [4]", "value": 35},
      {"measurement": "Plant response rating, Soybean", "setting": "soybean; [5]", "value": 85},
      {"measurement": "Plant response rating (0 to 100), Soybean", "setting": "soybean; 250 g ai/ha, postemergence", "value": 65},
      {"measurement": "Plant response rating, Soybean", "setting": "soybean; [6]", "value": 40},
      {"measurement": "Plant response rating, Ducksalad", "setting": "Heteranthera limosa", "value": 80},
      {"measurement": "Ryegrass, Italian plant response rating", "setting": "Italian ryegrass; [4]", "value": 5},
      {"measurement": "Plant response rating, Ryegrass, Italian", "setting": "Italian ryegrass; [5]", "value": 5},
      {"measurement": "Plant response rating (0 to 100), Ryegrass, Italian", "setting": "Italian ryegrass; 250 g ai/ha, postemergence", "value": 5},
      {"measurement": "Plant response rating, Ryegrass, Italian", "setting": "Italian ryegrass; [6]", "value": 5},
      {"measurement": "Blackgrass plant response rating", "setting": "blackgrass; [4]", "value": 5},
      {"measurement": "Plant response rating, Blackgrass", "setting": "blackgrass; [5]", "value": 5},
      {"measurement": "Plant response rating (0 to 100), Blackgrass", "setting": "blackgrass; 250 g ai/ha, postemergence", "value": 5},
      {"measurement": "Plant response rating, Blackgrass", "setting": "blackgrass; [6]", "value": 5},
      {"measurement": "Pigweed plant response rating", "setting": "pigweed; [4]", "value": 98},
      {"measurement": "Plant response rating, Pigweed", "setting": "pigweed; [5]", "value": 100},
      {"measurement": "Plant response rating (0 to 100), Pigweed", "setting": "pigweed; 250 g ai/ha, postemergence", "value": 100},
      {"measurement": "Plant response rating, Pigweed", "setting": "pigweed; [6]", "value": 98},
      {"measurement": "Plant response rating, Rice", "setting": "rice", "value": 0},
      {"measurement": "Barnyardgrass plant response rating", "setting": "barnyardgrass; [4]", "value": 10},
      {"measurement": "Plant response rating, Barnyardgrass", "setting": "barnyardgrass; [5]", "value": 15},
      {"measurement": "Plant response rating (0 to 100), Barnyardgrass", "setting": "barnyardgrass; 250 g ai/ha, postemergence", "value": 15},
      {"measurement": "Plant response rating, Barnyardgrass", "setting": "barnyardgrass; [6]", "value": 10},
      {"measurement": "Kochia plant response rating", "setting": "kochia; [4]", "value": 100},
      {"measurement": "Plant response rating, Kochia", "setting": "kochia; [5]", "value": 100},
      {"measurement": "Plant response rating (0 to 100), Kochia", "setting": "kochia; 250 g ai/ha, postemergence", "value": 100},
      {"measurement": "Plant response rating, Kochia", "setting": "kochia; [6]", "value": 100}
    ]}
  ]
}
